Common to all, as to assay type: cell-based
Assay [1] has as its system Staphylococcus aureus ATCC 29213. Briefly: Broth micro dilution assay for MIC and MBC. Conditions: S. aureus ATCC 29213. As for the experimental part:
All bacteria were grown on blood agar plates (Colombia agar-CM331, Oxoid Limited, Basingstoke, Hampshire, United Kingdom) supplemented with 5% v/v sheep blood) at 37° C. The Streptococcus species were incubated at 37° C. in the presence of 5% carbon dioxide (CO2).
Duplicate two-fold serial dilutions of test sample (100 μL/well) were prepared in sterile round-bottom 96-well plates (Sarstedt Australia Pty Ltd, Technology Park, SA, Australia), in the appropriate broth containing 2% DMSO. Bacterial cell suspension (100 μL) corresponding to 1×10^6 CFU/mL was added in all wells with the exception of wells containing saline, test sample and media sterility controls, respectively. Controls for bacterial growth without test sample were also included on each plate. Plates were then placed on a shaker for 10 min and incubated at 37° C. overnight. […] Vancomycin and gentamicin (Sigma, St Louis, Mo., United States of America) were used as positive controls for the Gram-positive and Gram-negative bacteria, respectively. Following the determination of the MIC, the MBC was determined by transferring a 10 μL aliquot from each of the wells at the concentration corresponding to the MIC and those concentrations above into 190 μL of appropriate broth in a sterile 96-well plate. […] The presence or absence of bacterial growth was determined by visual inspection. The MBC was considered to be the lowest concentration of the compound at which no growth occurred.

The subject of assay [2] is Gram-positive bacteria including S. aureus, S. pyogenes and S. pneumoniae. Description: Broth micro dilution assay, Gram-positive bacteria. Particulars: for antimicrobial activity against other Gram-positive bacteria: S. aureus (ATCC 25925), S. pyogenes, S. pneumoniae, values not shown. As for the experimental part: (§1) Staphylococcus aureus ATCC 29213 obtained from stock cultures stored at −70° C. at the Sansom Institute (University of South Australia, Adelaide, SA, Australia) was used as the test microorganism in a bioassay guided fractionation process. […] All bacteria were grown on blood agar plates (Colombia agar-CM331, Oxoid Limited, Basingstoke, Hampshire, United Kingdom) supplemented with 5% v/v sheep blood) at 37° C. The Streptococcus species were incubated at 37° C. in the presence of 5% carbon dioxide (CO2). Brain Heart Infusion broth (CM 225, Oxoid Limited) was used for the experiments to determine the minimum inhibitory concentration (MIC) and minimum bactericidal concentration (MBC) for the Streptococcus species while cation adjusted MH II broth (Becton Dickinson France SAS, Le Point de Claix, France) was used for the Staphylococcus species and the Gram-negative bacteria tested.
(§2) Broth micro dilution was used to determine the MIC of extract, fractions and pure compounds against S. aureus ATCC 29213. Duplicate two-fold serial dilutions of test sample (100 μL/well) were prepared in sterile round-bottom 96-well plates (Sarstedt Australia Pty Ltd, Technology Park, SA, Australia), in the appropriate broth containing 2% DMSO. Bacterial cell suspension (100 μL) corresponding to 1×10^6 CFU/mL was added in all wells with the exception of wells containing saline, test sample and media sterility controls, respectively. Controls for bacterial growth without test sample were also included on each plate. Plates were then placed on a shaker for 10 min and incubated at 37° C. overnight. […] Vancomycin and gentamicin (Sigma, St Louis, Mo., United States of America) were used as positive controls for the Gram-positive and Gram-negative bacteria, respectively. Following the determination of the MIC, the MBC was determined by transferring a 10 μL aliquot from each of the wells at the concentration corresponding to the MIC and those concentrations above into 190 μL of appropriate broth in a sterile 96-well plate. The plates were incubated under the same conditions as in the MIC experiment with the Streptococcus species incubated in the presence of 5% CO2. The presence or absence of bacterial growth was determined by visual inspection. The MBC was considered to be the lowest concentration of the compound at which no growth occurred.

In assay [3] the test system is Gram-negative bacteria tested. Briefly: Broth micro dilution assay, Gram-negative bacteria. Conditions: all Gram-negative bacteria tested, maximum concentrations tested. How it is done:
as §1
Broth micro dilution was used to determine the MIC of extract, fractions and pure compounds against S. aureus ATCC 29213. […] Following the determination of the MIC, the MBC was determined by transferring a 10 μL aliquot from each of the wells at the concentration corresponding to the MIC and those concentrations above into 190 μL of appropriate broth in a sterile 96-well plate. […] The presence or absence of bacterial growth was determined by visual inspection. […]

In assay [4] the test system is Salmonella typhimurium ATCC 13311. Briefly: Broth micro dilution assay for MIC and MBC. Conditions: Salmonella enterica; S. typhimurium ATCC 13311; maximum concentration tested 250 μg/mL. As for the experimental part:
as §1, §2

Assay [5] concerns Streptococcus pneumoniae ATCC 49619. Briefly: Broth micro dilution assay for MIC and MBC. Conditions: ATCC49619, S. pneumoniae ATCC 49619. As for the experimental part: as §1, §2
In assay [6] the test system is Staphylococcus aureus ATCC 25923. Briefly: Broth micro dilution assay for MIC and MBC. Conditions: ATCC25923, S. aureus ATCC 25923. How it is done:
as §1, §2

Assay [7] deals with Pseudomonas aeruginosa ATCC 27853. Description: Broth micro dilution assay for MIC and MBC. Particulars: ATCC27853, P. aeruginosa ATCC 27853, maximum concentration tested 250 μg/mL. How it is done: as §1, §2
Assay [8] deals with Escherichia coli ATCC 25922. Description: Broth micro dilution assay for MIC and MBC. Particulars: ATCC25922, E. coli ATCC 25922, maximum concentration tested 250 μg/mL. How it is done:
as §1, §2

In assay [9] the test system is Streptococcus pyogenes ATCC 10389. Description: Broth micro dilution assay for MIC and MBC. Particulars: ATCC10389, S. pyogenes ATCC 10389. How it is done: as §1, §2
Where [10] appears, read: range over Gram-positive bacteria of Table 2.

These results are taken from patent US20100311912A1, “ANTIMICROBIAL SURFACES” (priority 2008, published 2010).

For orientation: MIC means the smallest concentration in the dilution series that meets the test's criterion for growth inhibition. The MBC is the smallest concentration meeting the test's criterion for killing.

≈ marks a conversion by molar mass, not a printed value. Where two headings read alike, the source gives them in different places.

As for “8,20-diacetoxyserrulat-14-en-19-oic acid [Compound 5]”, in assay [1], the minimal inhibitory concentration (MIC) stood at 250 µg/mL.
Turning to `CC(C)=CCCC(C)C1CCC(C)c2cc(C(=O)O)c(O)cc21` (stereo not shown) [Compound 8, 8-hydroxyserrulat-14-en-19-oic acid], in assay [2], the “antimicrobial activity against other Gram-positive bacteria” value is on record as “showed antimicrobial activity”.
The same measure, in the same setting: to `CC(C)=CCCC(C)C1CCC(C)c2cc(CO)c(O)cc21` (stereo not shown) [Compound 7, 8,19-dihydroxyserrulat-14-ene] belongs “showed antimicrobial activity”.
In turn, `CC(=O)OCC(CCC=C(C)C)C1CCC(C)c2ccc(C(=O)O)c(O)c21` (stereo not shown) [Compound 3, 20-acetoxy-8-hydroxyserrulat-14-en-19-oic acid] yielded an MIC in assay [1] of 125 µg/mL (≈ 334 µM).
Still for that read-out and setting: as for “8,20-dihydroxyserrulat-14-en-19-oic acid [Compound 4]”, the figure is 250 µg/mL.
As to `CC(C)=CCCC1COC2=C(C)C(=O)C(=O)c3cccc1c32` (stereo not shown) [Compound 2, 9-methyl-3-(4-methyl-3-pentenyl)-2,3-dihydronaphtho[1,8-bc]pyran-7,8-dione], in [3], the “activity against Gram-negative bacteria” value was “Activity was not observed”. Besides, the minimal bactericidal concentration (MBC) in [2] (setting [10]) was 7.8 to 125 µg/mL (≈ 26.3 to 422 µM); in [1] (Staphylococcus aureus, ATCC29213), 125 µg/mL (≈ 422 µM); in assay [4], greater than 250 µg/mL; in assay [5], 7.8 µg/mL (≈ 26.3 µM); in assay [6] it was 15.6 µg/mL (≈ 52.6 µM); in assay [7] it was greater than 250 µg/mL. Besides, the MBC is greater than 250 µg/mL in assay [8] and 15.6 µg/mL (≈ 52.6 µM) in assay [9]. In addition, the MIC in [2] (setting [10]) was 7.8 to 15.6 µg/mL (≈ 26.3 to 52.6 µM); in assay [1] (Staphylococcus aureus, ATCC29213, read-out: MIC), 15.6 µg/mL (≈ 52.6 µM); in assay [4] it was greater than 250 µg/mL; in [5], 7.8 µg/mL (≈ 26.3 µM); in assay [6] it was 7.8 µg/mL (≈ 26.3 µM); in assay [7] it was greater than 250 µg/mL. Further, the MIC in [8] is greater than 250 µg/mL; in assay [9] it was 7.8 µg/mL (≈ 26.3 µM).
